Here are results for 18 molecules from US20200172491A1, “SUBSTITUTED 5-(HET-)ARYLPYRAZOLAMIDES AND SALTS THEREOF AND THEIR USE AS HERBICIDAL ACTIVE SUBSTANCES” (Bayer CropScience Aktiengesellschaft, priority 2017, published 2020).

The structures appear in SMILES notation.

What all share (assay type): in vivo
Assay [1] relates to Amaranthus retroflexus. The assay can be described thus: Post-emergence herbicidal action. Conditions: 320 g/ha, rated after about 3 weeks, 100% = plants have died, 0% = like control plants. The protocol:
(§1) Seeds of monocotyledonous and dicotyledonous weeds and crop plants were placed in sandy loam in plastic or wood-fiber pots, covered with soil and cultivated in a greenhouse under controlled growth conditions. 2 to 3 weeks after sowing, the test plants were treated at the one-leaf stage. The compounds of the invention, formulated in the form of wettable powders (WP) or as emulsion concentrates (EC), were then sprayed onto the green parts of the plants as aqueous suspension or emulsion with addition of 0.5% additive at a water application rate of 600 l/ha (converted). After the test plants had been kept in the greenhouse under optimum growth conditions for about 3 weeks, the activity of the preparations was rated visually in comparison to untreated controls. For example, 100% activity=the plants have died, 0% activity=like control plants. Tables B1 to B6 below show the effects of selected compounds of the general formula (I) according to Table A1 at an application rate of 320 g/ha on various harmful plants, which were obtained by the aforementioned experimental procedure.

The next assay deals with Ipomoea purpurea. The assay can be described thus: Post-emergence herbicidal action. The settings on record: 320 g/ha, rated after about 3 weeks, 100% = plants have died, 0% = like control plants. The protocol:
as §1

The subject of assay [2] is Matricaria inodora. The assay can be described thus: Post-emergence herbicidal action. Conditions: 320 g/ha, rated after about 3 weeks, 100% = plants have died, 0% = like control plants. The protocol:
as §1

Assay [3] concerns Stellaria media. Briefly: Post-emergence herbicidal action. Conditions: 320 g/ha, rated after about 3 weeks, 100% = plants have died, 0% = like control plants. The protocol:
as §1

The subject of assay [4] is Viola tricolor. Briefly: Post-emergence herbicidal action. The settings on record: 320 g/ha, rated after about 3 weeks, 100% = plants have died, 0% = like control plants. The protocol: as §1
The subject of assay [5] is Amaranthus retroflexus. The assay can be described thus: Pre-emergence herbicidal action. The settings on record: 320 g/ha, scored after about 3 weeks, 100% = plants have died, 0% = like control plants. From the text: (§2) Seeds of monocotyledonous and dicotyledonous weed plants and crop plants were placed in plastic or wood-fiber pots and covered with soil. The compounds of the invention, formulated in the form of wettable powders (WP) or as emulsion concentrates (EC), were then applied to the surface of the covering soil as aqueous suspension or emulsion with addition of 0.5% additive at a water application rate equivalent to 600 l/ha. After the treatment, the pots were placed in a greenhouse and kept under good growth conditions for the test plants. After about 3 weeks, the effect of the preparations is scored visually in comparison with untreated controls as percentages. For example, 100% activity=the plants have died, 0% activity=like control plants. Tables B7 to B11 below show the effects of selected compounds of the general formula (I) according to Table A1 at an application rate of 320 g/ha on various harmful plants, which were obtained by the aforementioned experimental procedure.

For assay [6], the system named is Matricaria inodora. Briefly: Pre-emergence herbicidal action. The settings on record: 320 g/ha, scored after about 3 weeks, 100% = plants have died, 0% = like control plants.
Excerpt: as §2

Assay [7] deals with Stellaria media. The assay can be described thus: Pre-emergence herbicidal action. Conditions: 320 g/ha, scored after about 3 weeks, 100% = plants have died, 0% = like control plants.
Excerpt: as §2

Assay [8] concerns Viola tricolor. Briefly: Pre-emergence herbicidal action. The settings on record: 320 g/ha, scored after about 3 weeks, 100% = plants have died, 0% = like control plants.
Excerpt: as §2

For the molecule `Cc1nn(C)c(-c2ccc(F)cc2Cl)c1C(=O)Nc1ccccc1` [I-002], the “herbicidal activity on Amaranthus retroflexus (visual rating vs untreated controls)” value with Amaranthus retroflexus [1] and in the assay with Amaranthus retroflexus [5] was 100% each time. Further, the “herbicidal activity on Ipomoea purpurea (visual rating vs untreated controls)” value in the assay with Ipomoea purpurea amounted to 80%. Besides, the “herbicidal activity on Matricaria inodora (visual rating vs untreated controls)” value in the assay with Matricaria inodora [2] and in the assay with Matricaria inodora [6] was 100% throughout. The “herbicidal activity on Stellaria media (visual rating vs untreated controls)” value in the assay on Stellaria media [3] and with Stellaria media [7] was 100% throughout. Also, the “herbicidal activity on Viola tricolor (visual rating vs untreated controls)” value in the assay on Viola tricolor [4] and in the assay with Viola tricolor [8] was 100% throughout.
On to `Cc1nn(C)c(-c2ccc(F)cc2Cl)c1C(=O)NC1CCCC1` [I-003], for which, in the assay on Amaranthus retroflexus [1], the “herbicidal activity on Amaranthus retroflexus (visual rating vs untreated controls)” value was 100%. Further, the “herbicidal activity on Matricaria inodora (visual rating vs untreated controls)” value in the assay on Matricaria inodora [6] came to 90%. Further, the “herbicidal activity on Stellaria media (visual rating vs untreated controls)” value in the assay with Stellaria media [7] was determined as 80%.
`Cc1nn(C)c(-c2ccc(F)cc2Cl)c1C(=O)Nc1ccccc1F` [I-006]: the “herbicidal activity on Amaranthus retroflexus (visual rating vs untreated controls)” value in the assay with Amaranthus retroflexus [1] and in the assay on Amaranthus retroflexus [5] was 100% each time. Moreover, the “herbicidal activity on Stellaria media (visual rating vs untreated controls)” value with Stellaria media [3] and with Stellaria media [7] was 100% in each case. Moreover, the “herbicidal activity on Viola tricolor (visual rating vs untreated controls)” value in the assay with Viola tricolor [4] and with Viola tricolor [8] was 100% each time. The “herbicidal activity on Matricaria inodora (visual rating vs untreated controls)” value in the assay on Matricaria inodora [6] turned out to be 90%.
On to `Cc1nn(C)c(-c2ccc(F)cc2Cl)c1C(=O)Nc1ccc(F)cc1` [I-007], for which the entries for the “herbicidal activity on Amaranthus retroflexus (visual rating vs untreated controls)” value in the assay with Amaranthus retroflexus [1] and in the assay with Amaranthus retroflexus [5] were 100% and 90%, respectively. Also, the “herbicidal activity on Stellaria media (visual rating vs untreated controls)” value in the assay with Stellaria media [3] was found to be 80%; with Stellaria media [7], 100%.
Consider `Cc1cccnc1NC(=O)c1c(C)nn(C)c1-c1ccc(F)cc1Cl` [I-010], for which the “herbicidal activity on Amaranthus retroflexus (visual rating vs untreated controls)” value in the assay with Amaranthus retroflexus [1] and in the assay with Amaranthus retroflexus [5] was 100% each time. The “herbicidal activity on Stellaria media (visual rating vs untreated controls)” value in the assay on Stellaria media [3] came to 100%. Further, the “herbicidal activity on Viola tricolor (visual rating vs untreated controls)” value with Viola tricolor [4] was 100%. The “herbicidal activity on Matricaria inodora (visual rating vs untreated controls)” value with Matricaria inodora [6] was found to be 100%.
As for `Cc1nn(C)c(-c2ccc(F)cc2Cl)c1C(=O)Nc1ncccc1F` [I-011], the figures for the “herbicidal activity on Amaranthus retroflexus (visual rating vs untreated controls)” value in the assay on Amaranthus retroflexus [1] and in the assay with Amaranthus retroflexus [5] were 90% and 80%, respectively. The “herbicidal activity on Stellaria media (visual rating vs untreated controls)” value in the assay with Stellaria media [3] and in the assay on Stellaria media [7] was 80% each time.
With `Cc1nn(C)c(-c2cc(F)ccc2Cl)c1C(=O)Nc1c(Cl)cccc1Cl` [I-014], the “herbicidal activity on Amaranthus retroflexus (visual rating vs untreated controls)” value in the assay with Amaranthus retroflexus [1] stood at 80%. For the same molecule, the “herbicidal activity on Stellaria media (visual rating vs untreated controls)” value in the assay on Stellaria media [3] came out at 90%. The “herbicidal activity on Viola tricolor (visual rating vs untreated controls)” value in the assay on Viola tricolor [4] was determined as 100%.
Consider `Cc1nn(C)c(-c2ccc(F)cc2Cl)c1C(=O)Nc1cc(Cl)ccc1Cl` [I-017], for which the “herbicidal activity on Amaranthus retroflexus (visual rating vs untreated controls)” value in the assay with Amaranthus retroflexus [1] and in the assay with Amaranthus retroflexus [5] was 100% in each case. In the assay with Stellaria media [3], the “herbicidal activity on Stellaria media (visual rating vs untreated controls)” value was 100%. In addition, in the assay with Viola tricolor [4], the “herbicidal activity on Viola tricolor (visual rating vs untreated controls)” value is given as 90%. Besides, the “herbicidal activity on Matricaria inodora (visual rating vs untreated controls)” value in the assay with Matricaria inodora [6] is listed as 80%.
Take `Cc1nn(C)c(-c2ccc(F)cc2Cl)c1C(=O)NC1CCCCC1` [I-018]: the “herbicidal activity on Amaranthus retroflexus (visual rating vs untreated controls)” value in the assay on Amaranthus retroflexus [1] turned out to be 80%.
`Cc1nn(C)c(-c2ccc(F)cc2Cl)c1C(=O)Nc1cc(Cl)cc(Cl)c1` [I-020]: the “herbicidal activity on Amaranthus retroflexus (visual rating vs untreated controls)” value in the assay on Amaranthus retroflexus [1] and in the assay with Amaranthus retroflexus [5] was 100% in each case. Also, the “herbicidal activity on Viola tricolor (visual rating vs untreated controls)” value is listed as 100% in the assay on Viola tricolor [4] and 80% with Viola tricolor [8]. Further, the “herbicidal activity on Matricaria inodora (visual rating vs untreated controls)” value in the assay with Matricaria inodora [6] was 100%. Besides, the “herbicidal activity on Stellaria media (visual rating vs untreated controls)” value in the assay with Stellaria media [7] is recorded as 90%.
Take `Cc1nn(C)c(-c2ccc(F)cc2Cl)c1C(=O)Nc1cc(Cl)ccc1F` [I-021]: the “herbicidal activity on Amaranthus retroflexus (visual rating vs untreated controls)” value in the assay with Amaranthus retroflexus [1] and in the assay on Amaranthus retroflexus [5] was 100% throughout. Moreover, the “herbicidal activity on Stellaria media (visual rating vs untreated controls)” value with Stellaria media [3] and in the assay with Stellaria media [7] was 100% each time. Also, the “herbicidal activity on Viola tricolor (visual rating vs untreated controls)” value in the assay on Viola tricolor [4] and with Viola tricolor [8] was 100% throughout. Moreover, in the assay with Matricaria inodora [6], the “herbicidal activity on Matricaria inodora (visual rating vs untreated controls)” value came out at 100%.
In the case of `Cc1nn(C)c(-c2ccc(F)cc2Cl)c1C(=O)Nc1ccc(F)nc1` [I-023], the “herbicidal activity on Amaranthus retroflexus (visual rating vs untreated controls)” value with Amaranthus retroflexus [1] came out at 90%. Moreover, the “herbicidal activity on Stellaria media (visual rating vs untreated controls)” value in the assay on Stellaria media [3] and in the assay with Stellaria media [7] was 100% in each case. For the same molecule, the “herbicidal activity on Matricaria inodora (visual rating vs untreated controls)” value in the assay with Matricaria inodora [6] stood at 90%.
Regarding `Cc1nn(C)c(-c2ccc(F)cc2Cl)c1C(=O)Nc1ccc(Cl)cc1` [I-024], the “herbicidal activity on Amaranthus retroflexus (visual rating vs untreated controls)” value in the assay with Amaranthus retroflexus [1] amounted to 100%. The “herbicidal activity on Stellaria media (visual rating vs untreated controls)” value in the assay with Stellaria media [3] is 100%. In addition, the “herbicidal activity on Viola tricolor (visual rating vs untreated controls)” value in the assay with Viola tricolor [4] is recorded as 100%.
Turning to `Cc1nn(C)c(-c2ccc(F)cc2Cl)c1C(=O)Nc1c(F)cc(F)cc1F` [I-025], the “herbicidal activity on Amaranthus retroflexus (visual rating vs untreated controls)” value in the assay with Amaranthus retroflexus [1] and with Amaranthus retroflexus [5] was 100% in each case. Also, the “herbicidal activity on Ipomoea purpurea (visual rating vs untreated controls)” value with Ipomoea purpurea is 80%. The “herbicidal activity on Matricaria inodora (visual rating vs untreated controls)” value with Matricaria inodora [2] and in the assay with Matricaria inodora [6] was 100% each time. For the same molecule, the “herbicidal activity on Stellaria media (visual rating vs untreated controls)” value came out at 90% in the assay with Stellaria media [3] and 100% in the assay with Stellaria media [7]. Also, the “herbicidal activity on Viola tricolor (visual rating vs untreated controls)” value in the assay on Viola tricolor [4] and with Viola tricolor [8] was 100% in each case.
For `CCn1nc(C)c(C(=O)Nc2c(Cl)cccc2Cl)c1-c1ccc(F)cc1Cl` [I-026], in the assay on Amaranthus retroflexus [1], the “herbicidal activity on Amaranthus retroflexus (visual rating vs untreated controls)” value is reported as 90%. Moreover, the “herbicidal activity on Viola tricolor (visual rating vs untreated controls)” value in the assay with Viola tricolor [4] was 80%.
Regarding `Cc1nn(C)c(-c2ccc(F)cc2Cl)c1C(=O)Nc1cccnc1F` [I-031], the “herbicidal activity on Amaranthus retroflexus (visual rating vs untreated controls)” value with Amaranthus retroflexus [1] and in the assay on Amaranthus retroflexus [5] was 100% each time. The “herbicidal activity on Stellaria media (visual rating vs untreated controls)” value with Stellaria media [3] is 100%; with Stellaria media [7], 90%. The “herbicidal activity on Viola tricolor (visual rating vs untreated controls)” value is listed as 100% with Viola tricolor [4] and 80% with Viola tricolor [8]. In addition, in the assay on Matricaria inodora [6], the “herbicidal activity on Matricaria inodora (visual rating vs untreated controls)” value amounted to 100%.
For `Cc1nn(C)c(-c2ccc(F)cc2Cl)c1C(=O)Nc1cncc(F)c1` [I-032], the “herbicidal activity on Amaranthus retroflexus (visual rating vs untreated controls)” value in the assay with Amaranthus retroflexus [1] and with Amaranthus retroflexus [5] was 100% each time. For the same molecule, the “herbicidal activity on Ipomoea purpurea (visual rating vs untreated controls)” value in the assay on Ipomoea purpurea worked out at 90%. The “herbicidal activity on Matricaria inodora (visual rating vs untreated controls)” value in the assay on Matricaria inodora [2] and in the assay on Matricaria inodora [6] was 100% throughout. The “herbicidal activity on Stellaria media (visual rating vs untreated controls)” value with Stellaria media [3] was determined as 100%. In addition, in the assay on Viola tricolor [4], the “herbicidal activity on Viola tricolor (visual rating vs untreated controls)” value is 100%.
For the molecule `Cc1nn(C)c(-c2ccc(F)cc2)c1C(=O)Nc1c(Cl)cccc1Cl` [I-033], in the assay with Amaranthus retroflexus [1], the “herbicidal activity on Amaranthus retroflexus (visual rating vs untreated controls)” value was found to be 80%. The “herbicidal activity on Viola tricolor (visual rating vs untreated controls)” value in the assay with Viola tricolor [4] amounted to 80%.
